Data: patent US20250051275A1, “PYRROLE DERIVATIVE OR PHARMACEUTICALLY OR SITOLOGICALLY ACCEPTABLE SALTS THEREOF, AND COMPOSITION FOR PREVENTION, AMELIORATION OR TREATMENT OF GASTROINTESTINAL DISORDERS COMPRISING SAME AS ACTIVE INGREDIENT” (HANA PHARM CO., LTD., priority 2021, published 2025)
Read-outs that look alike come from different tables or passages of the source.

Legend:
[1] = biological target: proton pump (H+/K+-ATPase) (Sus scrofa (Pig), UniProt P19156); assay: Inhibitory activity on proton pump (H+/K+-ATPase) activity; type: biochemical; details: porcine gastric mucosal microsomes, 5 mM KCl, pH 6.4
Method: The compounds indicated in the above examples were tested for their inhibitory activity on proton pump (H+/K+-ATPase) activity as follows by applying the method disclosed in the literature. According to the methods of Nobuyuki Takahashi and Yukinori Take [J Pharmacol Exp Ther. 2018 February; 364(2):275-286], the gastric mucosal microsome fraction was isolated from the porcine stomach. The stomach isolated from the pig was washed first with tap water, only the fundus was cut, and then washed (a second time) with cold PBS. The gastric mucosa was separated by scraping, homogenized with 250 mM sucrose solution, and centrifuged at 20,000 g at 4° C. for 30 minutes. Only the supernatant was centrifuged at 115,000 g at 4° C. for 30 minutes, and the precipitate was suspended in 250 mM sucrose solution, added to cover with 7% Ficoll solution, and centrifuged at 135,000 g at 4° C. for 60 minutes. The microsome fraction formed at the interface was recovered and suspended in 250 mM sucrose solution, and centrifuged at 135,000 g, 4° C. for 60 minutes, and the precipitate was dissolved in 0.9% NaCl. The isolated gastric mucosal microsome fraction was quantified by using the Bicinchoninic Acid (BCA) kit (Thermo).
60 μl of enzyme reaction solution (a test compound at a given concentration, […] of gastric mucosal microsomes, 3 mM of MgSO4, 5 mM of KCl, 40 mM of Tris-HCl pH 6.4, and 0.5 mM of adenosine triphosphate) was added to each well of a 96-well plate and reacted at 37° C. for 60 minutes, and 30 μl of 10% SIDS was added to stop the enzyme reaction. 200 μl of detection solution (in which 10% L-ascorbic acid with pH 5.0 was mixed with 35 mM of ammonium molybdate tetrahydrate/15 mM of zinc acetate with pH 5.0 at the ratio of 4:1) was added and reacted at 37° C. for 30 minutes, and the absorbance value was measured at 750 nm by using a microplate reader (MULTISKAN GO, Thermo). The inhibition rate of proton pump activity was expressed as I050, which is 50% inhibition of enzyme activity, by using GraphPad Prism 5. In Table 1 below, an I050 value of 100 nM or less is indicated by +++, an I050 value of 101 to 200 nM is indicated by ++, and an I050 value of above 200 nM is indicated by +.

[2] = tested on: Human gastric cancer cells (MKN-45 Cell); assay: Anticancer efficacy in xenograft mouse model; type: in vivo, nude mice; details: 10 mg/kg oral once/day, Day 12, MKN-45 xenograft
Method: This study was conducted to evaluate the anticancer efficacy of the compound of Example 15 of the present invention in a xenograft tumor model. Human gastric cancer cells (MKN-45 Cell) were purchased from the Korea Cell Line Bank and cultured in a 5% CO2 incubator at 37° C. by using an RPMI 1640 medium containing 1% penicillin-streptomycin and 10% fetal bovine serum. The cultured cells were separated using 0.25% Trypsin-0.02% EDTA every 3 to 4 days and then subcultured. Cells. Four-week-old female nude mice were purchased, and after a one-week acclimatization period in a laboratory environment, the nude mice that reached 5 weeks of age were used in the experiment. MKN-45 cells were made into a single cell suspension by using Matrigel and DPBS, and implanted subcutaneously into nude mice at a concentration of 1×10^7 cells per mouse. One week after MKN-45 cell transplantation, experimental animals with tumors with a specific size were selected and divided into 3 groups with 10 animals per group. The compound of Example 7 was administered orally at administration concentrations of 10 mg/kg and 30 mg/kg, and the experiment was conducted for 12 days.
The size of the tumor was calculated using the formula ‘short axis×short axis×long axis/2,’ and the results of the changes in tumor size change are illustrated in FIG. 2.

[3] = Oral bioavailability in beagle dogs; type: in vivo; details: dog, plasma; for AUC(0-t) / half-life / Cmax / Tmax: mean n=3; for bioavailability: po, read-out: BA (bioavailability)
Method: To evaluate oral bioavailability, Example 7 was administered intravenously or orally to beagle dogs.
For the intravenous administration group, blood samples were obtained from peripheral veins 1 minute, 5 minutes, 15 minutes, 30 minutes, 1 hour, 2 hours, 4 hours, 8 hours, and 24 hours after drug administration. For the oral administration group, blood samples were obtained from peripheral veins 15 minutes, 30 minutes, 1 hour, 2 hours, 4 hours, 6 hours, 8 hours, 12 hours, and 24 hours after drug administration. Blood samples collected at different times were treated with EDTA and centrifuged (2 to 8° C., 3,200 g, 10 minutes) to separate plasma.
The amount of administered compound into the plasma sample was quantified by using LC-MS/MS. Pharmacokinetic parameters were obtained by using a non-compartmental model in Phoenix WinNonlin 6.3 software.
‘AUC0-last’ indicates the area under the time curve, ‘Cmax’ indicates the highest plasma concentration, ‘Tmax’ indicates the time to reach the highest plasma concentration, ‘T1/2’ indicates the half-life, and ‘BA’ indicates the bioavailability.

proton pump (H+/K+-ATPase), sequence (P19156 2-1034): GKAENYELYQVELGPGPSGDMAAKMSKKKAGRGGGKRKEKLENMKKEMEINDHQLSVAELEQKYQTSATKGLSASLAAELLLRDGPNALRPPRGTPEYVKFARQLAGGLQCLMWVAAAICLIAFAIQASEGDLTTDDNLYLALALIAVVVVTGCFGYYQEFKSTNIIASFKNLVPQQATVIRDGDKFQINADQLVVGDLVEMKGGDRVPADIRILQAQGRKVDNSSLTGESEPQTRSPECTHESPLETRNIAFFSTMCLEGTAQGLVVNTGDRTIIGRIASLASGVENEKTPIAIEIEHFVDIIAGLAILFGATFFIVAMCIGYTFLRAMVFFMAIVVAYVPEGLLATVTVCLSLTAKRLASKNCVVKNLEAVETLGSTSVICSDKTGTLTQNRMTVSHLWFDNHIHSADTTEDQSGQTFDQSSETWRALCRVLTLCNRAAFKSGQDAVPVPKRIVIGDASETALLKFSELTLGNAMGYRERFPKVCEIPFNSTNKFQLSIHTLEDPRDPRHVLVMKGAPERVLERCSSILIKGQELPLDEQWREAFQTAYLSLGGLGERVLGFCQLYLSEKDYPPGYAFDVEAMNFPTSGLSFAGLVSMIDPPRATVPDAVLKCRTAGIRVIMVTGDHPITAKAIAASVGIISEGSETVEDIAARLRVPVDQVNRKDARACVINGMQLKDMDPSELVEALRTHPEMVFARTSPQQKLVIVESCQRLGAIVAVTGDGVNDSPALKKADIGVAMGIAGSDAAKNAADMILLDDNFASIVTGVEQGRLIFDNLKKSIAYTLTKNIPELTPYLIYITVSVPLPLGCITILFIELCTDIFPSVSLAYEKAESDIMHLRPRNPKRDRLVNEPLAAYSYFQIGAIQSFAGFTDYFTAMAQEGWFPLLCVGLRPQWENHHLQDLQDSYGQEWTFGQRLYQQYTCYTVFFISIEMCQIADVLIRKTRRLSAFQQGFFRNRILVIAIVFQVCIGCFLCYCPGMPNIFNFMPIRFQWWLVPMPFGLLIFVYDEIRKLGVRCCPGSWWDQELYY
proton pump (H+/K+-ATPase), sequence (P18434 whole entry partner): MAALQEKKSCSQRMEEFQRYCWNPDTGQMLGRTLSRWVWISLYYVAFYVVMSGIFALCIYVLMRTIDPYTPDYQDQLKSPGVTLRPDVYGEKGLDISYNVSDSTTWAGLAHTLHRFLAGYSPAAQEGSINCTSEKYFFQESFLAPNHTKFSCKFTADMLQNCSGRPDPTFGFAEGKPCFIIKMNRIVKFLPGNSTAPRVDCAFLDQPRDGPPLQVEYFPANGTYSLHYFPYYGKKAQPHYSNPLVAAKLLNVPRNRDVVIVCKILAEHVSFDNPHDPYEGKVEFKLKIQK

Question: For [2H]C([2H])([2H])NCc1cc(-c2ccccc2F)n(S(=O)(=O)c2ccc(F)cc2)c1 [Example 7, N-((5-(2-fluorophenyl)-1-((4-fluorophenyl)sulfonyl)-1H-pyrrol-3-yl)methyl)methan-d3-amine], which IC50 ([1]; read-out: Proton pump inhibitory activity (IC50)) is on record?
Answer: 25 nM

Question: What about the IC50 ([1]; read-out: Proton pump inhibitory activity (IC50, nM), class symbol) of the same compound?
Answer: ≤ 100 nM

Question: And the “tumor size reduced as compared to the Control group (vehicle)” value [2]?
Answer: 42%

Question: And the AUC(0-t) ([3]; intravenous 0.2 mg/kg)?
Answer: 423 ng·h/mL

Question: What about the half-life ([3]; intravenous 0.2 mg/kg) of the same compound?
Answer: 3.57 h

Question: And the AUC(0-t) ([3]; oral 2 mg/kg (1 mg/ml))?
Answer: 6940 ng·h/mL

Question: And the Cmax ([3]; oral 2 mg/kg (1 mg/ml))?
Answer: 632 ng/mL

Question: What about the Tmax ([3]; oral 2 mg/kg (1 mg/ml)) of the same compound?
Answer: 1.53 h

Question: What about the half-life ([3]; oral 2 mg/kg (1 mg/ml)) of the same compound?
Answer: 5.55 h

Question: What about the AUC(0-t) ([3]; oral 6 mg/kg (3 mg/ml)) of the same compound?
Answer: 15100 ng·h/mL

Question: What about the Cmax ([3]; oral 6 mg/kg (3 mg/ml)) of the same compound?
Answer: 1120 ng/mL

Question: And the Tmax ([3]; oral 6 mg/kg (3 mg/ml))?
Answer: 3.67 h

Question: And the half-life ([3]; oral 6 mg/kg (3 mg/ml))?
Answer: 7.49 h

Question: And the AUC(0-t) ([3]; oral 20 mg/kg (10 mg/ml))?
Answer: 49300 ng·h/mL

Question: What about the Cmax ([3]; oral 20 mg/kg (10 mg/ml)) of the same compound?
Answer: 3350 ng/mL

Question: And the Tmax ([3]; oral 20 mg/kg (10 mg/ml))?
Answer: 3.33 h

Question: What about the half-life ([3]; oral 20 mg/kg (10 mg/ml)) of the same compound?
Answer: 18.3 h

Question: And the bioavailability ([3]; 2 mg/kg, oral 2 mg/kg (1 mg/ml))?
Answer: ≥ 100%

Question: And the bioavailability ([3]; 6 mg/kg, oral 6 mg/kg (3 mg/ml))?
Answer: ≥ 100%

Question: And the bioavailability ([3]; 20 mg/kg, oral 20 mg/kg (10 mg/ml))?
Answer: ≥ 100%
